Activity calls are given as the source filed them.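 How the source made its calls: active means in confirmatory dose-response testing, peak deubiquitinase inhibition of 30% or more; inactive means the rest.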
The compounds below were run against Ubiquitin carboxyl-terminal hydrolase 28 (Homo sapiens) (UniProt Q96RU2) (assay: Ubiquitin-specific peptidase 28 DUB inhibitors, biochemical concentration-dependence assay, validation of primary screening hits (AID 1645866)). Conditions: purified USP28, ubiquitin-rhodamine fluorescence, 30 min.
Chain of Ubiquitin carboxyl-terminal hydrolase 28 (Homo sapiens) (Q96RU2 whole entry, looked up): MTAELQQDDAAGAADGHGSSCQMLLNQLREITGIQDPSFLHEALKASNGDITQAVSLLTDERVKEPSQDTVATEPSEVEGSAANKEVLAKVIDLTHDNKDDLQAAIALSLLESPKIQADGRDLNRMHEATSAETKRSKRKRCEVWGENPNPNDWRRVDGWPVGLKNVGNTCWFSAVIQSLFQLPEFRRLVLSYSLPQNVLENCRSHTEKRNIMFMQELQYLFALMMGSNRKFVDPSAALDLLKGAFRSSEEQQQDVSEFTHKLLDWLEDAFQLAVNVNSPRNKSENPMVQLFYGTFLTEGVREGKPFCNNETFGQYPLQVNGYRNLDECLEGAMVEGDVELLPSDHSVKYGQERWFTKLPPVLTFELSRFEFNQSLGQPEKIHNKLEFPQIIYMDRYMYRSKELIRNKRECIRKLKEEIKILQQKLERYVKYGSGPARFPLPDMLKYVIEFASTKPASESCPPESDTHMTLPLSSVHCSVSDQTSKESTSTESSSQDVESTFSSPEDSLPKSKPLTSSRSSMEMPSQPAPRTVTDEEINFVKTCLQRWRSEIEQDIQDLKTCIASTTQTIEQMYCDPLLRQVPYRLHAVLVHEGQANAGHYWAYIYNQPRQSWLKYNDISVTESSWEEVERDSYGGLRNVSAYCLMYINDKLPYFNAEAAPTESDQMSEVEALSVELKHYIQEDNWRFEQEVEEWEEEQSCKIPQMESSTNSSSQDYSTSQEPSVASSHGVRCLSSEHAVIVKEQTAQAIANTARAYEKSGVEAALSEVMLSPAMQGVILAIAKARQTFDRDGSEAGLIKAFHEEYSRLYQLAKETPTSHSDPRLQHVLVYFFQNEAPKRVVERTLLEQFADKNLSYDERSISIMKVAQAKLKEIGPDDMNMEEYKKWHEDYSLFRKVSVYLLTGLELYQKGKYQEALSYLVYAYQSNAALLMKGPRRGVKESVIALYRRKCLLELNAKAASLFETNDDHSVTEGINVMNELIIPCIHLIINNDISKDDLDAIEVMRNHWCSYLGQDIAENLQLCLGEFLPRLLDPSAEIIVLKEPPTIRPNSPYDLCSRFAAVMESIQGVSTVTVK

SMILES | IC50
O=C1N[C@@H](Cc2ccccc2)C(=O)N2[C@H]3Nc4ccccc4[C@@]3([C@]34C[C@H]5C(=O)N[C@@H](Cc6ccccc6)C(=O)N5[C@H]3Nc3ccccc34)C[C@@H]12 | 29.4 µM
Cc1cccc(-n2nc(C)c3c2NC(=O)CC3C(=O)c2cc3ccccc3o2)c1 (centres undefined) | 25.3 µM
Cc1ccc(C(=O)Nc2ccc3c(c2)C(=O)N(C)c2ccccc2O3)cc1C | 2.75 µM
CCCCNC(=O)c1cc2cccnc2n(Cc2ccccc2)c1=O | > 50 µM (inactive)
O=C(Cn1ncc2c(N3CCCCCC3)ncnc21)NCc1ccccc1 | > 50 µM (inactive)
N#Cc1ccccc1Cn1c(=O)n(Cc2ccco2)c(=O)c2ccccc21 | 7.54 µM
CC(=O)Nc1ccc(S(=O)(=O)NCc2ccc(C(=O)NCc3ccc(C)cc3)cc2)cc1 | 19.2 µM
CC(=O)c1sc(NC(=O)/C=C/c2ccccc2)nc1-c1ccccc1 | 18.7 µM
O=c1[nH]c(-c2ccccn2)nc2c1CCN(Cc1cnn(-c3ccccc3)c1)C2 | > 50 µM (inactive)
CCn1cnc2c1c(=O)n(CC(=O)NCc1ccccc1Cl)c(=O)n2Cc1ccccc1 | > 50 µM (inactive)
CCCCNc1nc2c(-c3ccccc3)nnn2c2ccccc12 | 6.63 µM
Cc1ccc(-c2c(C(=O)Nc3ccc(S(N)(=O)=O)cc3)oc(=O)c3ccccc23)cc1 | 30.5 µM
CC(C)(C)c1cc(C[C@@H]2C[C@H](NC(=O)N3CCOCC3)C2(C)C)no1 | > 50 µM (inactive)
Cc1ccc(NC(=O)c2cnc3c(c2)c(=O)n(C)c(=O)n3C)cc1 | 2.07 µM
COc1cccc(/C=C/C(=O)Nc2ccc(C)c(Cl)c2)c1 | 5.79 µM
O=C(NCc1ccccc1)c1ccc(-c2ccc(N3CCCC3)nn2)cc1 | > 50 µM (inactive)
COc1ccc(NC(=O)c2nnn(-c3ccccc3)c2C)cc1OC | 11.6 µM
CCn1cnc2c(-c3ccccc3)cn(CC(=O)NCc3ccc4c(c3)OCO4)c2c1=O | 10.4 µM
COc1ccc(-n2c(SCC(=O)c3ccc(F)cc3)nnc2-c2cccnc2)cc1 | 18.6 µM
CC(=O)Nc1ccc(O)c(-c2nc3cc(C)ccc3o2)c1 | 3.38 µM
CN(C)c1cc(-n2cnc(C(=O)NCc3ccccc3Cl)c2)ncn1 | 19.8 µM
CCCCCCCc1cc(O)cc(O)c1 | 4.32 µM
Cc1ccc(Nc2nc(C(=O)NCc3ccc4c(c3)OCO4)cc3occc23)cc1Cl | 19 µM
COc1cc(NC(=O)Cn2nc(-c3ccc(F)cc3)ccc2=O)ccc1-n1cnnn1 | 1.98 µM
O=C(Cn1cnc(-c2noc(-c3ccncc3)n2)c1)N1CCN(c2ccccc2F)CC1 | > 50 µM (inactive)

SMILES | IC50
Cc1ccc(NC(=O)CSc2nc3c(cc2C#N)C(=O)CCC3)cc1 | 21 µM
O=C(NCc1cccnc1)c1cnn2c(C(F)(F)F)cc(-c3ccc(F)cc3)nc12 | 47.4 µM
O=C(OCc1ccc(Br)cc1)c1ccc2ccccc2n1 | 1 µM
O=c1[nH]c(C2CCN(S(=O)(=O)c3ccc(S(=O)(=O)NC4CCCCC4)cc3)CC2)nc2c1nnn2Cc1c(F)cccc1Cl | 17 µM
COc1cc2c(cc1OC)C(COc1ccccc1OC)N(C(=O)c1ccc3ccccc3c1)CC2 (centres undefined) | > 50 µM (inactive)
Cc1ccc(NC(=O)Cc2nnc3cc(-c4nc(C)no4)ccn23)cc1 | 5.02 µM
Cc1ccccc1NC(=O)Cn1c(N2CCOCC2)nc2cc(C)n(C)c2c1=O | 20.1 µM
Cc1nnc(NC(=O)C2CCN(c3ccc(S(N)(=O)=O)cc3[N+](=O)[O-])CC2)o1 | 11.1 µM
CC1CCCCN1CCCNC(=O)c1ccc(N2CCc3ccccc32)s1 (centres undefined) | 10.6 µM
COc1cc(NC(=O)c2cc(-c3ccncc3)n(-c3ccc(F)cc3)n2)cc(OC)c1 | 12 µM
NS(=O)(=O)c1ccc(CNS(=O)(=O)c2ccc(-c3ccccn3)s2)cc1 | 19.9 µM
Nc1c(C(=O)c2cccs2)oc2nc(-c3ccccc3)cc(-c3ccco3)c12 | > 50 µM (inactive)
Cn1c(CCN2CCCC2)nc2cc(NC(=O)c3ccccc3)ccc21 | > 50 µM (inactive)
COc1ccc(NC(=O)c2nnn(-c3ccccc3F)c2C)cc1OC | 2.61 µM
Cc1ccccc1-c1nnc(-c2ccc(C(=O)NCc3ccccc3F)cc2)o1 | 12.6 µM
O=C(Nc1ccccc1)c1cn2c3c(cccc3c1=O)CC2 | 31.9 µM
CC(C)N1CC2CN(C(=O)c3ccccc3)CCN2Cc2ccccc21 (centres undefined) | > 50 µM (inactive)
O=C(COc1cccc(-n2cnnn2)c1)Nc1ccc2c(c1)OCCO2 | 31.4 µM
CCOC(=O)[C@@H]1[C@@H](c2ccccc2)CN2CCN(C(=O)c3cnccn3)C[C@H]12 | > 50 µM (inactive)
O=C(NC(Cc1ccccc1)c1nc2ccccc2[nH]1)C1CC1 (centres undefined) | > 50 µM (inactive)
Cc1ccc(CN2CCCn3nc(C(=O)NCc4ccccc4C)cc3C2=O)cc1 | 45.2 µM
COc1cccc(NC(=O)Nc2ccc(NC(C)=O)cc2)c1 | 4.04 µM
O=C(Nc1ccc(F)cc1F)NC1CCN(c2ccccc2)C1=O (centres undefined) | 21.7 µM
COc1ccc(C(=O)Nc2ccc3c(c2)C(=O)N(C)c2ccccc2O3)cc1 | 8.9 µM
CC(=O)c1oc2nc3c(c(-c4ccc(Cl)cc4)c2c1N)CCc1ccccc1-3 | > 50 µM (inactive)

SMILES | IC50
O=C(Nc1cccc(-c2noc(C3CCC3)n2)c1)C1CC(=O)N(c2ccccc2)C1 (centres undefined) | 18.8 µM
CC(C)(C)C(=O)NC(c1ccccc1)c1nnc(N2CCOCC2)o1 (centres undefined) | > 50 µM (inactive)
Cc1cc(C(F)(F)F)n(-c2ccc(NC(=O)Nc3cccc(C(F)(F)F)c3)cc2)n1 | 5.05 µM
FC(F)(F)c1ccccc1CCN1CCc2nc3ccc(Cl)cc3cc2C1 | > 50 µM (inactive)
CCOc1ccc(NC(=O)COc2cccc3c2CCN(CC)C3=O)cc1 | 4.24 µM
COc1cccc2c1OCC(NS(=O)(=O)c1cc(C)ccc1C)C2 (centres undefined) | > 50 µM (inactive)
Cc1ccccc1C(=O)c1ccc(C(=O)NC2CCCCCC2)[nH]1 | 7.45 µM
COc1ccccc1CNC(=O)CCCn1c(=O)c2ccccc2n(CC(=O)N2CCN(c3ccccc3)CC2)c1=O | 28.8 µM
Cc1ccccc1NC(=O)c1cc(S(=O)(=O)N2CCCCCC2)ccc1Cl | 25.6 µM
Cc1ccc2nc(CCc3ccc(NS(=O)(=O)c4cccc(Cl)c4C)cc3)[nH]c2c1 | 27.1 µM
Cc1cnc2nc3c(cc2c1)CN(S(=O)(=O)c1cc(F)ccc1C)CC3 | > 50 µM (inactive)
COc1ccc(NC(=O)COc2ccc3ccc(=O)oc3c2)cc1 | 31.1 µM
Cc1ccc(-n2c(-c3ccccc3)cn3c4c(=O)[nH]c(=O)n(C)c4nc23)cc1Cl | 0.305 µM
COc1ccc(C(=O)NCC(c2ccc3c(c2)CCCN3C)N2CCCC2)cc1 (centres undefined) | > 50 µM (inactive)
CO[C@H]1/C=C/OC2(C)Oc3c(C)c(O)c4c(c3C2=O)C2(C=C(NC(=O)/C(C)=C\C=C\[C@H](C)[C@H](O)[C@@H](C)[C@@H](O)[C@@H](C)[C@H](OC(C)=O)C1C)C4=O)OCC(=O)O2 (some centres undefined) | > 50 µM (inactive)
O=C(Cn1c(=O)n(Cc2ccc3c(c2)OCO3)c(=O)c2ncccc21)c1ccc(Cl)cc1 | 30.4 µM
COc1cc(N)c(Cl)cc1C(=O)OCC(=O)c1ccc2c(c1)OCCO2 | 6.12 µM
Cc1sc(NC(=O)CNc2ccccc2)nc1-c1ccc2c(c1)CCN2C(=O)C(C)C | > 50 µM (inactive)
Cc1cc(/C=C2/C(=N)N3C(c4ccccc4)=CSC3=NC2=O)c(C)n1-c1ccc(F)cc1 | > 50 µM (inactive)
Cc1cnc(CN2CCCC(c3ccc4cn[nH]c4n3)C2)cn1 (centres undefined) | > 50 µM (inactive)
Cc1ccc2nnc(-c3ccccc3)c(C(=O)N3CCN(c4ccccn4)CC3)c2c1 | 35 µM
CO[C@H]1CC[C@H](O)c2c1oc1c3c4c(c(O)c1c2=O)-c1c(cc2c(Cl)c(C)n(N)c(=O)c2c1O)C[C@@H]4OCO3 | 20.3 µM
Cc1ccc(Cl)cc1NC(=O)c1cc(-c2ccccn2)n[nH]1 | 13.4 µM
O=C(/C=C/c1ccc(F)cc1)Nc1ccc2c(c1)OCCO2 | 2.47 µM
O=C(Nc1cccc(Cl)c1)c1ncn2c1CNS(=O)(=O)c1ccccc1-2 | 13.4 µM

SMILES | IC50
O=C(NCCc1ccccc1F)c1cn2cc(Cl)ccc2n1 | 31.8 µM
COc1ccc(NC(=O)c2ccnc(Nc3ccc(OC)cc3)c2)cc1 | 39.7 µM
CC(C)Cc1nc2sc3c(NCc4ccccc4)ncnc3c2c2c1COC(C)(C)C2 | 6.15 µM
CC(C)N1CC[C@@H]2[C@H](C1)CN2C(=O)Nc1cccc(F)c1 | > 50 µM (inactive)
CCC(C)c1ccc(-c2csc(Cn3c(CN4CCN(C)CC4)nc4ccccc4c3=O)n2)cc1 (centres undefined) | 15.3 µM
O=C(NCc1ccc(Cl)cc1)Nc1cccc2ccccc12 | 40.4 µM
Clc1cncc(Oc2nc(-c3cccnc3)nc3ccccc23)c1 | 9.69 µM
CC12c3ccc4c(c3C(=O)c3occ(c31)C(=O)CC2O)CCC4=O (centres undefined) | > 50 µM (inactive)
Cn1ncc2c(=O)n(Cc3cccc(Cl)c3)cnc21 | 12.9 µM
CCOc1ccc(-n2c(C)cc(/C=C(\C#N)c3nc4ccccc4[nH]3)c2C)cc1 | > 50 µM (inactive)
COc1ccc(CCNC(=O)CCn2c(=O)c3ccccc3n(Cc3ccc(C)cc3)c2=O)cc1OC | 22 µM
CCCCc1nc2sc3c(SCC(=O)NCc4ccccc4)ncnc3c2c2c1CCC2 | 39 µM
C/C=C\C1=CC(=O)[C@]23C[C@H]2[C@]2(C)CO[C@@]1(O)[C@@]3(O)O2 | > 50 µM (inactive)
CN=C(N)NCCC/C=C/CCCC(C)CC(C)C1OC(=O)/C=C/C(C)C(O)CC(O)C(C)C(O)CCC(C)C(O)CC2(O)OC(CC(OC(=O)CC(=O)O)CC(O)CC(O)C(C)C(O)/C=C/C1C)CC(O)C2O (centres undefined) | 19.8 µM
O=C(COc1ccccc1-c1nnc(-c2ccccc2)o1)Nc1ccc(F)cc1F | 3.36 µM
COc1cccc(-n2c(CNCc3cccnc3)nc3ccc([N+](=O)[O-])cc3c2=O)c1 | 20.2 µM
Fc1ccccc1Cc1nc(-c2ccc3nncn3c2)no1 | 9.69 µM
CS(=O)(=O)N1CCCN(c2nc3cc(Cl)ccc3n3cccc23)CC1 | > 50 µM (inactive)
O=C(Nc1ccncc1)c1ncoc1-c1cccc(Cl)c1 | 32.3 µM
CCCNc1cc(-c2ccccc2)nc2nc(-c3cccnc3)nn12 | > 50 µM (inactive)
COC(=O)C1C(c2ccc(Cl)cc2Cl)C2(C(=O)c3ccccc3C2=O)C2C=Cc3ccccc3N12 (centres undefined) | > 50 µM (inactive)
COc1ccc(-c2cc(C(C)=O)c(C)n2CCC(=O)Nc2ccc(OC)cc2OC)cc1 | 43.1 µM
Cc1ccc(NC(=O)c2sc3ncn(CC(=O)N4CCN(c5ccccn5)CC4)c(=O)c3c2C)c(Br)c1 | 16.1 µM
Cc1ccc(NC(=O)Cn2cc(S(=O)(=O)N3CCCC3)ccc2=O)cc1 | 17.2 µM

Source: PubChem BioAssay AID1645866 (Buhrlage Lab, Dana-Farber Cancer Institute and Novartis …, 2021)
